Assay results: ChEMBL document CHEMBL3817801, “Synthesis and steroid sulfatase inhibitory activities of N-phosphorylated 3-(4-aminophenyl)-coumarin-7-O-sulfamates” (Medchemcomm, 2016)

Target: T1, Steryl-sulfatase (Homo sapiens, UniProt P08842)
T1 sequence (P08842 whole entry): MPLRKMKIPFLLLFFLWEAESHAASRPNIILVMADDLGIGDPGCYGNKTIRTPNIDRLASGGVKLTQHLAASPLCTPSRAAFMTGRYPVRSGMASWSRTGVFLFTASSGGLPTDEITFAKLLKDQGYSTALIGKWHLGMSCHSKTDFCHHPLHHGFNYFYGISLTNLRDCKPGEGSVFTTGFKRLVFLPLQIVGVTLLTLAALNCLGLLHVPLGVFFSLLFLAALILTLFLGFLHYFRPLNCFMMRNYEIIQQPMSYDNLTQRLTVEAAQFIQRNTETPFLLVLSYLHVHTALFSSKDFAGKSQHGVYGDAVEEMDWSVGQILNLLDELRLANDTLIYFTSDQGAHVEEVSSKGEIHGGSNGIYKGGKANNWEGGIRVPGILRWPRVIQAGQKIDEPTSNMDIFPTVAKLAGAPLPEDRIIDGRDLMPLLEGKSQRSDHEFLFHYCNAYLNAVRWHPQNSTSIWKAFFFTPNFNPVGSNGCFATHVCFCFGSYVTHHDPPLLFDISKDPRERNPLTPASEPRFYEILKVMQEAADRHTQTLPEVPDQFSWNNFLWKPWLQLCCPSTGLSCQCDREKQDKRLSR
Experiment: Inhibition of human placental steroid sulfatase using p-nitrophenyl sulfate as substrate after 15 mins by microplate reader method

Question: `Cc1cc(=O)oc2cc(OS(N)(=O)=O)ccc12` was tested. Which IC50 did it give?
Answer: 1.03 µM

Question: With `NS(=O)(=O)Oc1ccc2ccc(=O)oc2c1` as the compound, how does the IC50 read?
Answer: 1.38 µM

Question: With `CCOP(=O)(Nc1ccc(-c2cc3ccc(OS(N)(=O)=O)cc3oc2=O)cc1)OCC` as the compound, how does the IC50 read?
Answer: 0.51 µM

Question: Which IC50 does the source give for `CC1(C)COP(=O)(Nc2ccc(-c3cc4ccc(OS(N)(=O)=O)cc4oc3=O)cc2)OC1` here?
Answer: 0.45 µM

Question: How did the IC50 turn out when `CCCCOP(=O)(Nc1ccc(-c2cc3ccc(OS(N)(=O)=O)cc3oc2=O)cc1)OCCCC` was run?
Answer: 0.31 µM

Question: Which IC50 does the source give for `NS(=O)(=O)Oc1ccc2cc(-c3ccc(NP4(=O)OCCCO4)cc3)c(=O)oc2c1` here?
Answer: 0.7 µM

Question: `NS(=O)(=O)Oc1ccc2cc(-c3ccc(NP(=O)(Oc4ccccc4)Oc4ccccc4)cc3)c(=O)oc2c1` was tested. Which IC50 did it give?
Answer: 0.19 µM

Question: `NS(=O)(=O)Oc1ccc2cc(-c3ccc(NP(=O)(OCc4ccccc4)OCc4ccccc4)cc3)c(=O)oc2c1` was tested. Which IC50 did it give?
Answer: 0.24 µM

Question: With `CC(C)OP(=O)(Nc1ccc(-c2cc3ccc(OS(N)(=O)=O)cc3oc2=O)cc1)OC(C)C` as the compound, how does the IC50 read?
Answer: 0.47 µM

Question: How did the IC50 turn out when `COP(=O)(Nc1ccc(-c2cc3ccc(OS(N)(=O)=O)cc3oc2=O)cc1)OC` was run?
Answer: 0.78 µM
